Consider ten molecules from patent US20080027042A1, “Novel Aminopyridine Derivatives Having Aurora a Selective Inhibitory Action” (priority 2004, published 2008).

Data set [1] has as its system Human cervical cancer cells (HeLa S3). Put plainly: Cell growth inhibitory effect, WST-8 method. The format is cell-based. The following applies: 72 h, HeLa S3, three days incubation. From the text:
Method for Judging the Pharmaceutical Effect Using cells
Fetal calf serum (FCS) was purchased from Moregate Biotech, and DMEM medium was purchased from Invitrogen Corp. WST-8 was purchased from Kishida Chemical Co., Ltd.
(§1) Human cervical cancer cells (HeLa S3) were obtained from the American Type Culture Collection (ATCC).
(§2) c) Method of Judging the Effect
Cells were suspended in a DMEM medium containing 10% FCS, and the cell suspension was dispensed to a 96-well plastic plate at a rate of 750 cells/l 00 microliters per well. The plate was incubated overnight in 5% CO2-95% air at 37° C. A drug was subjected to graded dilution in dimethylsulfoxide and further diluted with a DMEM medium containing 10% FCS. Then, the dilution was dispensed to the plate on which cells had been disseminated, at a rate of 100 microliters per well. The plate was incubated for further three days in 5% CO2-95% air at 37° C. Cell growth after incubation was measured by the WST-8 method (H. Tominaga, et al., Anal. Commun., 36, 47-50 (1999)). Here, the WST-8 method refers to a method in which 20 microliters of a WST-8 reagent solution is added to each well, incubation is conducted at 37° C. for 45 minutes, the plate is stirred, and the amount of formazan produced is measured by a calorimetric method to determine the inhibitory rate of the drug. The concentration for 50% growth inhibition (EC50, IM) of the compound was determined.

For the next data set, the target named is T1, Aurora A (Homo sapiens, UniProt O14965).
T1 construct: histidine tag (N); made in house; host or cells: Escherichia coli BL21-CodonPlus(DE3)-RIL
T1 sequence (O14965 1-403): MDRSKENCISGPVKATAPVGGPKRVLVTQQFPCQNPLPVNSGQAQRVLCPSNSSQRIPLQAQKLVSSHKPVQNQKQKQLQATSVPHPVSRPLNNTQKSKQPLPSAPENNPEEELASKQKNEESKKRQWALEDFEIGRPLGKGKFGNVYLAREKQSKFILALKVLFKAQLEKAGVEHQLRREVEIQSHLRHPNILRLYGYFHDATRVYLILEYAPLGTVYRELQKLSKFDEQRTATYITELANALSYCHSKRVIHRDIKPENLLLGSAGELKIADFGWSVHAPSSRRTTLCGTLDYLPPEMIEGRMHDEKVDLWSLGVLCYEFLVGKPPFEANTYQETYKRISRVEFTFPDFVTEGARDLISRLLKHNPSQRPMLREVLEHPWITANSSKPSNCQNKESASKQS
Put plainly: Aurora A inhibitory action (33P-ATP kinase assay, Kemptide substrate). The format is biochemical. The following applies: 20 μM ATP, 30° C., 20 minutes. An outline of the steps: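 His-tagged Aurora A expressed in E. coli, Ni-purified; reaction in 50 mM Tris pH 7.4, 15 mM Mg acetate, 0.2 mM EDTA with 100 μM Kemptide, 20 μM ATP plus [γ-33P]ATP, 20 min at 30 °C. Phosphopeptide captured on P81 filters and counted by scintillation; DMSO control.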

The target of the next data set is T2, Aurora B (Homo sapiens, UniProt Q96GD4).
T2 construct: histidine tag (N); made in house; host or cells: Escherichia coli BL21-CodonPlus(DE3)-RIL
Nature of the data set: Aurora B inhibitory action (33P-ATP kinase assay, Kemptide substrate). The format is biochemical. Conditions: 100 μM ATP, 30° C., 20 minutes. An outline of the steps:
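His-tagged Aurora B expressed in E. coli, reacted with 100 μM Kemptide, 100 μM ATP plus [γ-33P]ATP in Tris pH 7.4, 15 mM Mg acetate, 0.2 mM EDTA, 30 °C, 20 min. Peptide captured on P81 filters for scintillation counting; compounds added from DMSO dilutions.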

For data set [2], the system named is Human cervical cancer cells (HeLa S3). Put plainly: Effect by combined use of drugs in cells (with paclitaxel), WST-8 method. Conditions: three days; for inhibition at 0.3 µM: HeLa S3, compound 0.3 μM alone; for inhibition at 0.03 µM: HeLa S3, compound 0.03 μM alone; for inhibition at 0.1 µM: HeLa S3, compound 0.1 μM alone. The format is cell-based.
Excerpt: Method for Judging the Effect by Combined Use of Drugs in Cells
Fetal calf serum (FCS) was purchased from Moregate Biotech, DMEM medium from Invitrogen Corp., paclitaxel (tradename: Taxol) from Sigma-Aldrich, Inc., and WST-8 from Kishida Chemical Co., Ltd.
as §1, §2
Cells were suspended in a DMEM medium containing 10% FCS, and the cell suspension was dispensed to two 96-well plastic plates at a rate of 750 cells/100 microliters per well. The plates were incubated overnight in 5% CO2-95% air at 37° C. A drug was subjected to graded dilution in dimethylsulfoxide and flurther diluted with DMSO or with a DMEM medium containing 10% FCS and also containing 2 nM paclitaxel. Then, the dilutions were each dispensed to one of the plates on which cells had been disseminated, at a rate of 100 microliters per well. The final concentration of paclitaxel at this stage was 1 nM. Also, the concentrations in the case of sole administration of the compound according to the invention were 0.03, 0.1, 0.3, 1 and 3 μM. The plates were incubated for further three days in 5% CO2-95% air at 37° C. Cell growth after incubation was measured by the WST-8 method (H. Tominaga, et al., Anal. Commun., 36, 47-50 (1999)). Here, the WST-8 method refers to a method in which 20 microliters of a WST-8 reagent solution is added to each well, incubation is conducted at 37° C. for 45 minutes, the plate is stirred, and the amount of formazan produced is measured by a colorimetric method to determine the inhibitory rate of the drug. The growth inhibitory effects of paclitaxel and of the compound according to the invention were determined, with the value obtained in sole treatment of DMSO being defined as 0%.

The mark [3] stands for this setting: HeLa S3, compound 0.3 μM + paclitaxel 1 nM.
The mark [4] stands for this setting: Homo sapiens, HeLa S3, 72 h, read-out: Cell growth inhibitory effect by sole administration of the compound of Example (%).
Setting [5] is: HeLa S3, compound 0.03 μM + paclitaxel 1 nM.
Where [6] appears, read: HeLa S3, compound 0.1 μM + paclitaxel 1 nM.

T2 sequence (Q96GD4 whole entry): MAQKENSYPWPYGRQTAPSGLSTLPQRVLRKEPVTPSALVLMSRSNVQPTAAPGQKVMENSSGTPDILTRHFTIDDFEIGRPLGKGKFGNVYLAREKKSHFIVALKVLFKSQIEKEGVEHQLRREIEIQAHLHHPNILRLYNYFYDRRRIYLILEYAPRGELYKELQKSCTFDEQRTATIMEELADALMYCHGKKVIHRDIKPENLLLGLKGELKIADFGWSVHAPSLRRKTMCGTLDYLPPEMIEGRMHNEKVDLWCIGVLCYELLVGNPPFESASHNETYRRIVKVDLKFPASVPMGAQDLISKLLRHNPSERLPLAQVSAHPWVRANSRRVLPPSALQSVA

In turn, `O=C(c1cccc(C(F)(F)F)c1F)N1CCN(Cc2cncc(Nc3cc[nH]n3)n2)CC1` [Example 44, 6-((4-(2-fluoro-3-(trifluoromethyl)benzoyl)piperazin-1-yl)methyl)-N-1H-pyrazol-3-ylpyrazin-2-amine] registered a melting point of 160 to 163 °C. The IC50 in data set [1] is 2400 nM. Further, half-maximal inhibition against Aurora A (IC50) required 0.89 nM. The same molecule gave an IC50 against Aurora B of 1100 nM. For the same molecule, in data set [2] (setting [3]), the “Cell growth inhibitory effect by combined administration of paclitaxel and the compound of Example (%)” value (shortened to “Cell growth inhibitory effect … (%)”) is reported as 86.5%. Also, the inhibition at 0.3 µM in data set [2] (setting [4]) was 7.1%.

In the case of `O=C(c1cccc(Cl)c1F)N1CCN(Cc2cccc(Nc3ncc(Cl)s3)n2)CC1` [Example 75, 6-((4-(3-chloro-2-fluorobenzoyl)piperazin-1-yl)methyl)-N-(5-chlorothiazol-2-yl)pyridin-2-amine], the IC50 in data set [1] came to 11000 nM; at Aurora A, 0.44 nM; against Aurora B, 89 nM. Further, the “Cell growth inhibitory effect … (%)” value in data set [2] (setting [3]) is given as 91.5%. The inhibition at 0.3 µM in data set [2] (setting [4]) turned out to be 27.1%.

As for `O=C(Cc1ccc(Cl)cc1)N1CCN(Cc2cccc(Nc3ncc(Cl)s3)n2)CC1.O=C(O)C(F)(F)F` [Example 77, 6-((4-((4-chlorophenyl)acetyl)piperazin-1-yl)methyl)-N-(5-chlorothiazol-2-yl)pyridin-2-amine trifluoroacetate], the IC50 in data set [1] was determined as 1600 nM; at Aurora A, 4.1 nM; at Aurora B it was 1300 nM. Also, the “Cell growth inhibitory effect … (%)” value in data set [2] (setting [3]) is recorded as 51.8%. The inhibition at 0.3 µM in data set [2] (setting [4]) was found to be 2.2%.

With `CN(C)C(=O)c1cc(CN2CCN(C(=O)c3cccc(Cl)c3F)CC2)nc(Nc2nccs2)c1.O=C(O)C(F)(F)F` [Example 86, 2-((4-(3-chloro-2-fluorobenzoyl)piperazin-1-yl)methyl)-N,N-dimethyl-6-(thiazol-2-ylamino)isonicotinamide trifluoroacetate], the IC50 in data set [1] was found to be 510 nM; against Aurora A, 0.66 nM; at Aurora B, 560 nM. Also, the “Cell growth inhibitory effect … (%)” value in data set [2] (setting [5]) came out at 71.6%. In data set [2] (setting [4]), the inhibition at 0.03 µM amounted to 6.2%.

On to `O=C(c1cccc(Cl)c1F)N1CCN(Cc2cc(CO)cc(Nc3nccs3)n2)CC1` [Example 89, (2-((4-(3-chloro-2-fluorobenzoyl)piperazin-1-yl)methyl)-6-(thiazol-2-ylamino)pyridin-4-yl)methanol], for which the IC50 amounted to 360 nM in data set [1], 0.38 nM against Aurora A and 200 nM against Aurora B. Also, the “Cell growth inhibitory effect … (%)” value in data set [2] (setting [6]) stood at 85.8%. Further, the inhibition at 0.1 µM in data set [2] (setting [4]) was 19.1%.

As for `COCc1cc(CN2CCN(C(=O)c3cccc(Cl)c3F)CC2)nc(Nc2nccs2)c1` [Example 95, 6-((4-(3-chloro-2-fluorobenzoyl)piperazin-1-yl)methyl)-4-(methoxymethyl)-N-thiazol-2-ylpyridin-2-amine], the IC50 in data set [1] was 220 nM; at Aurora A, 0.59 nM; against Aurora B it was 250 nM. The “Cell growth inhibitory effect … (%)” value in data set [2] (setting [5]) is on record as 73.5%. For the same molecule, in data set [2] (setting [4]), the inhibition at 0.03 µM was 0%.

In the case of `N#Cc1cc(CN2CCN(C(=O)c3cccc(Cl)c3F)CC2)nc(Nc2nccs2)c1` [Example 104, 2-((4-(3-chloro-2-fluorobenzoyl)piperazin-1-yl)methyl)-6-(thiazol-2-ylamino)isonicotinonitrile], the half-inhibitory concentration (IC50) in data set [1] was 990 nM; on Aurora A, 1.1 nM; against Aurora B, 1400 nM. In data set [2] (setting [3]), the “Cell growth inhibitory effect … (%)” value was determined as 81.6%. Further, the inhibition at 0.3 µM in data set [2] (setting [4]) came out at 6.3%.

As to `Cn1nnnc1-c1cc(CN2CCN(C(=O)c3cccc(Cl)c3F)CC2)nc(Nc2nccs2)c1` [Example 106, 6-((4-(3-chloro-2-fluorobenzoyl)piperazin-1-yl)methyl)-4-(1-methyl-1H-tetrazol-5-yl)-N-thiazol-2-ylpyridin-2-amine], the IC50 in data set [1] is 400 nM; against Aurora A it was 0.88 nM; against Aurora B, 400 nM. For the same molecule, the “Cell growth inhibitory effect … (%)” value in data set [2] (setting [6]) is 76.7%. Moreover, in data set [2] (setting [4]), the inhibition at 0.1 µM was found to be 6.1%.

Consider `Cn1nnc(-c2cc(CN3CCN(C(=O)c4cccc(Cl)c4F)CC3)nc(Nc3nccs3)c2)n1` [Example 107, 6-((4-(3-chloro-2-fluorobenzoyl)piperazin-1-yl)methyl)-4-(2-methyl-2H-tetrazol-5-yl)-N-thiazol-2-ylpyridin-2-amine], for which the IC50 in data set [1] worked out at 210 nM; at Aurora A it was 0.32 nM; at Aurora B, 190 nM. The “Cell growth inhibitory effect … (%)” value in data set [2] (setting [5]) worked out at 74.1%. Further, in data set [2] (setting [4]), the inhibition at 0.03 µM came out at 11.5%.

Consider `O=C(c1cccc(Cl)c1F)N1CCN(Cc2cc(-c3ncn[nH]3)cc(Nc3nccs3)n2)CC1` [Example 108, 6-((4-(3-chloro-2-fluorobenzoyl)piperazin-1-yl)methyl)-N-thiazol-2-yl-4-(1H-1,2,4-triazol-5-yl)pyridin-2-amine], for which the IC50 in data set [1] turned out to be 1200 nM; on Aurora A it was 0.59 nM; at Aurora B it was 800 nM. For the same molecule, the “Cell growth inhibitory effect … (%)” value in data set [2] (HeLa S3, compound 1.0 μM + paclitaxel 1 nM) was found to be 86.4%. The inhibition at 1 µM in data set [2] (Homo sapiens, HeLa S3, 72 h, HeLa S3, compound 1.0 μM alone, read-out: Cell growth inhibitory effect by sole administration of the compound of Example (%)) stood at 17.2%.
